Measurements published in patent US11697648B2, “Fused pyrimidine pyridinone compounds as JAK inhibitors” (THERAVANCE BIOPHARMA R&D IP, LLC, priority 2019, dated 2023).

What was measured:
JAK2 = JAK2 (Homo sapiens (Human), UniProt O60674); test: Biochemical JAK2 kinase assay (LanthaScreen)
Procedure, shortened: (§1)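 GST-JAK + GFP-STAT1 peptide, HEPES pH 7.5/MgCl2/EGTA/Brij-35 buffer; cpd preincubation 1 h RT; ATP start, 1 h RT; stop with 10 mM EDTA + 2 nM Tb-anti-pSTAT1; TR-FRET 520/495. 4-parameter IC50 → pKi (Cheng-Prusoff).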

[1] = tested on: IL-2 stimulated STAT5 phosphorylation in Tall-1 human T cell line (JAK3); test: Cellular JAK3 potency assay: inhibition of IL-2 stimulated pSTAT5 in Tall-1 T cells; format: cell-based; conditions: IL-2 stimulated pSTAT5, Tall-1 T cells
Procedure, shortened: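 AlphaLISA SureFire Ultra measures STAT5 Tyr694/699 phosphorylation in lysed Tall-1 human T cells. Cells were exposed to compound for 1 h at 37 °C before a 30 min IL-2 challenge (300 ng/ml final). Values are pIC50 means with standard deviation from signal-versus-concentration curves.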

JAK1 = JAK1 (Homo sapiens (Human), UniProt P23458); test: Biochemical JAK1 kinase assay (LanthaScreen)
Procedure, shortened: as §1

Tyk2 = Tyk2 (Homo sapiens (Human), UniProt P29597); test: Biochemical Tyk2 kinase assay (LanthaScreen)
Procedure, shortened: as §1

JAK3 = JAK3 (Homo sapiens (Human), UniProt P52333); test: Biochemical JAK3 kinase assay (LanthaScreen); conditions: for JAK3 (pKi)-JAK1 (pKi): selectivity JAK3 over JAK1, difference of pKi
Procedure, shortened: as §1

Chain of JAK1 (P23458 whole entry): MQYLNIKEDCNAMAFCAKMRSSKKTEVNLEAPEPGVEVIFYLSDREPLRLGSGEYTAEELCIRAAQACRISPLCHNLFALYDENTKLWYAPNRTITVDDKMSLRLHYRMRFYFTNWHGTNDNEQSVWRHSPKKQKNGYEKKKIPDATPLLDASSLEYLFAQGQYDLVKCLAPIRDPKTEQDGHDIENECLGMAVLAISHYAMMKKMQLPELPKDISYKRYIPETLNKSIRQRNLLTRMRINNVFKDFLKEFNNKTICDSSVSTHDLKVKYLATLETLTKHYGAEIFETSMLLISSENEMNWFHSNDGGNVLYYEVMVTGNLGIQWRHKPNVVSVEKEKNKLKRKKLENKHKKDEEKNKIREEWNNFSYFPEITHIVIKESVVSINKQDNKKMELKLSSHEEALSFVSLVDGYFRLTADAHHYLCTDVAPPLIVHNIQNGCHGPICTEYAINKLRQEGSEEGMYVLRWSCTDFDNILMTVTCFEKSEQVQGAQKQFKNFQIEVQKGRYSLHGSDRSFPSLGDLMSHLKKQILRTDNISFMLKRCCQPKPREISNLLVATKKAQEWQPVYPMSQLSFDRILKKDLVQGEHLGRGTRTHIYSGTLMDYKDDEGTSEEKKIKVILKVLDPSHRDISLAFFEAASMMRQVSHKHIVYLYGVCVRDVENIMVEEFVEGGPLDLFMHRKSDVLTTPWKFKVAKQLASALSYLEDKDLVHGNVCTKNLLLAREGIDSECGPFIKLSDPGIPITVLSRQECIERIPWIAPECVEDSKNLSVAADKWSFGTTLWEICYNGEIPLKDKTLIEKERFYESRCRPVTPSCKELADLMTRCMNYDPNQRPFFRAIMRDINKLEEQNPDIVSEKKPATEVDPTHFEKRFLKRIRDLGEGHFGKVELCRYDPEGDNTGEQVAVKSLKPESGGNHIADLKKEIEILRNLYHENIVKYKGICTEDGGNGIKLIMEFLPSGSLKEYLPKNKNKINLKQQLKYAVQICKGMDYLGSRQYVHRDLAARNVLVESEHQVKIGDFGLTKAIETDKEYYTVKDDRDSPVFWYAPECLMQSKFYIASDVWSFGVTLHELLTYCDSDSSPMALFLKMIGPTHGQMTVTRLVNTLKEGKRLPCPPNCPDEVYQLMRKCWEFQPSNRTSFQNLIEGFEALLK
Chain of JAK3 (P52333 whole entry): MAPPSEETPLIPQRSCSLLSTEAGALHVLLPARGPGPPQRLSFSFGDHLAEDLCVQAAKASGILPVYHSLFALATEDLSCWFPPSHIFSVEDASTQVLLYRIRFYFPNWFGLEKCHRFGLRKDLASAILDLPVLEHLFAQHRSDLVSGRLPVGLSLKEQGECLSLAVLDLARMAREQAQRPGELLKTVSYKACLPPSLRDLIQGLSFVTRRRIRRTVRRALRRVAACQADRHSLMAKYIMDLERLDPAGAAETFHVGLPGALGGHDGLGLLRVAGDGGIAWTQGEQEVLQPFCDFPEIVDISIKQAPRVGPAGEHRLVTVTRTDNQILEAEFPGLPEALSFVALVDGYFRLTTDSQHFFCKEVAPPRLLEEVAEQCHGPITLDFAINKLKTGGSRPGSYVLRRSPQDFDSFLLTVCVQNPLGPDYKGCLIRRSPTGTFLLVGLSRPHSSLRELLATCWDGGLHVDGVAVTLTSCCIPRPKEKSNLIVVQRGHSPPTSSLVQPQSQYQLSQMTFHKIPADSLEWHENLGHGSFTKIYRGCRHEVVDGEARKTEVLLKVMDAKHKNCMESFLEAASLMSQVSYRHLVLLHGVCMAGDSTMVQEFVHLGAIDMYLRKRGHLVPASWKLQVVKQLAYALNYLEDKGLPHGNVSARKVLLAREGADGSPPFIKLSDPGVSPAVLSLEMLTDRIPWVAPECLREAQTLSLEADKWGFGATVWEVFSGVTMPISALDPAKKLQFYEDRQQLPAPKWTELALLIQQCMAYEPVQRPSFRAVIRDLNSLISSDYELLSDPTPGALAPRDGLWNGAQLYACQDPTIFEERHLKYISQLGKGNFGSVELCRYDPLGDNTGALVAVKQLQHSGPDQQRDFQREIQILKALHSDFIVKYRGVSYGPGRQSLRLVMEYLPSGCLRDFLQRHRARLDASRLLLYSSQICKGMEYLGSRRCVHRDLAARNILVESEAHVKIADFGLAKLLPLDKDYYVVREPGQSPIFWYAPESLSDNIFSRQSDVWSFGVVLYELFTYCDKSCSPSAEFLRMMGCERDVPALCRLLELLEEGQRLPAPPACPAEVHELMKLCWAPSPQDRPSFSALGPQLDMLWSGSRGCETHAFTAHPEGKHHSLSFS
Chain of JAK2 (O60674 whole entry): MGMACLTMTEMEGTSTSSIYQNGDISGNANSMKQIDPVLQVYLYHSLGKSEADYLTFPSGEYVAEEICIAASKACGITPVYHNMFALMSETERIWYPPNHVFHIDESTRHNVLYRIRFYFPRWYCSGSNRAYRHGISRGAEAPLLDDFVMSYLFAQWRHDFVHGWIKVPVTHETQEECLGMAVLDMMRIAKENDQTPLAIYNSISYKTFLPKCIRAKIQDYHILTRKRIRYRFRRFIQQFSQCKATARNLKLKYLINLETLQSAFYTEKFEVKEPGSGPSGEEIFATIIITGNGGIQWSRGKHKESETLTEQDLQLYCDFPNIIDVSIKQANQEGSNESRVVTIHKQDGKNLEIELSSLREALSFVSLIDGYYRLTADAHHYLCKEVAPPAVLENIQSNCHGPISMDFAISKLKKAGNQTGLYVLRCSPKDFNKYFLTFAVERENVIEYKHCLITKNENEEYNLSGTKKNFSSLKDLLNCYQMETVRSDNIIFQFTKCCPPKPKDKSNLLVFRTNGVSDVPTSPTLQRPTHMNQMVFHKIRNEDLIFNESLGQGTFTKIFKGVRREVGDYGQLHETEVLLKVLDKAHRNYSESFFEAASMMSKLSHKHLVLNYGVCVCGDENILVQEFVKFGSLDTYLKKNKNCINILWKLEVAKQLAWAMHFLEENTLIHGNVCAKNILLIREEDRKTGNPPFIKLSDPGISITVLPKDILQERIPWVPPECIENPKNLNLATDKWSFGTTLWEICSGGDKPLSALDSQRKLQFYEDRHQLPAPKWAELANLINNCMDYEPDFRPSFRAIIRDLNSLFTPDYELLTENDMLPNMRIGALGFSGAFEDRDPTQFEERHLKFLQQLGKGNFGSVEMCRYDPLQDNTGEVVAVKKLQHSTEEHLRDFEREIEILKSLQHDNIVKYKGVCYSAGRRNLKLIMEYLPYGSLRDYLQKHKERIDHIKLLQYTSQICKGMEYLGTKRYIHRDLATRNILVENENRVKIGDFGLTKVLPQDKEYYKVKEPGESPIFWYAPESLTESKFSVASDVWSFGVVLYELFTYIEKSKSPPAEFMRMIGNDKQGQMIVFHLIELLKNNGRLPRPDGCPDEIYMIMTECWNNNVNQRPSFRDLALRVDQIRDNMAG
Chain of Tyk2 (P29597 whole entry): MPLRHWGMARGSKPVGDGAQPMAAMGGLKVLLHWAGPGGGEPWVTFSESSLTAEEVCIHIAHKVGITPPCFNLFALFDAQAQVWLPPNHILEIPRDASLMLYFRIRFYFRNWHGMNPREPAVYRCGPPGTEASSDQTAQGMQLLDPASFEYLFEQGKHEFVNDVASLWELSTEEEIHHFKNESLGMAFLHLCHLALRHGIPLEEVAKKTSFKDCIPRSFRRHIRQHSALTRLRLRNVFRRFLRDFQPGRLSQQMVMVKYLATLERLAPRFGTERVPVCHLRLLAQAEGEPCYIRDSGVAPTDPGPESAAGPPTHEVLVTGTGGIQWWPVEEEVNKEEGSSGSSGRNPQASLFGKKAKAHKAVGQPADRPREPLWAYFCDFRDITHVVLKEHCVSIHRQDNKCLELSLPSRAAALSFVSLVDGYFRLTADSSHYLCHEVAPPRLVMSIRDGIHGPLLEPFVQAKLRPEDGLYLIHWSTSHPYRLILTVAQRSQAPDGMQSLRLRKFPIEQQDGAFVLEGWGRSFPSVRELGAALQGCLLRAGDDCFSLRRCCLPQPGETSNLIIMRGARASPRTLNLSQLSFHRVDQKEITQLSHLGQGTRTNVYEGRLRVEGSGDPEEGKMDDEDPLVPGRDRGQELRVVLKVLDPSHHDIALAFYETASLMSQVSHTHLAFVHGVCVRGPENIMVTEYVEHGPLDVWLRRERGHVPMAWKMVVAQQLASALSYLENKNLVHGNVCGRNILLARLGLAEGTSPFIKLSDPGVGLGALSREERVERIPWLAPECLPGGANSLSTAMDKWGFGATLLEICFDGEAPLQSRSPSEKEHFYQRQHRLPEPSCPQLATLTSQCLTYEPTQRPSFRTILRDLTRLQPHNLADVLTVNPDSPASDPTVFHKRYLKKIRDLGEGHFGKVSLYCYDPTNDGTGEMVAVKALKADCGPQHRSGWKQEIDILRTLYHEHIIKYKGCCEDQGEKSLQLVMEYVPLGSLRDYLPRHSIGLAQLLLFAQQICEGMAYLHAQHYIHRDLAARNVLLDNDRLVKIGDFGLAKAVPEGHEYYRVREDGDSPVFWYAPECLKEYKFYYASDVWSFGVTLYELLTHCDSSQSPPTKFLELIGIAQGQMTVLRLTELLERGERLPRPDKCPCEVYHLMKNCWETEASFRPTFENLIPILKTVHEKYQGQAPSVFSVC

SMILES	JAK 2 (pKi) (JAK2)	Tall-1 (pIC50) [1]	JAK 1 (pKi) (JAK1)	Tyk 2 (pKi) (Tyk2)	JAK 3 (pKi) (JAK3)	JAK3 (pKi)-JAK1 (pKi) (JAK3)
C=CC(=O)N1CCN(CCn2c(=O)ccc3cnc(Nc4ccc(N5CCN(C(C)=O)CC5)c(Cl)c4)nc32)CC1 [Example 153]	E (E represents a pKi value of 7 or below (Ki of 100 nM or above))	C (C represents a pIC50 value between 6 and 6.7 (IC50 between 1 μM and 200 nM))	E (E represents a pKi value of 7 or below (Ki of 100 nM or above))	E (E represents a pKi value of 7 or below (Ki of 100 nM or above))	B (B represents pKi value between 9 and 10 (Ki between 1 nM and 0.1 nM))	A (A represents a value of 3 or above)
C=CC(=O)N1CCN(CCn2c(=O)ccc3cnc(Nc4ccc(N5CCN(C)CC5)c(Cl)c4)nc32)CC1 [Example 154]	E (E represents a pKi value of 7 or below (Ki of 100 nM or above))	B (B represents a pC50 value between 6.7 (included) and 7.5 (IC50 between 200 nM and 32 nM))	E (E represents a pKi value of 7 or below (Ki of 100 nM or above))	E (E represents a pKi value of 7 or below (Ki of 100 nM or above))	B (B represents pKi value between 9 and 10 (Ki between 1 nM and 0.1 nM))	A (A represents a value of 3 or above)
C=CC(=O)N1CCN(CCn2c(=O)ccc3cnc(Nc4cnn(C)c4)nc32)[C@@H](CCC)C1 [Example 158]	E (E represents a pKi value of 7 or below (Ki of 100 nM or above))	C (C represents a pIC50 value between 6 and 6.7 (IC50 between 1 μM and 200 nM))	E (E represents a pKi value of 7 or below (Ki of 100 nM or above))	E (E represents a pKi value of 7 or below (Ki of 100 nM or above))	B (B represents pKi value between 9 and 10 (Ki between 1 nM and 0.1 nM))	A (A represents a value of 3 or above)
C=CC(=O)N1CCN(CCn2c(=O)ccc3cnc(Nc4ccc(N5CCN(C)CC5)cc4)nc32)[C@@H](C)C1 [Example 160]	E (E represents a pKi value of 7 or below (Ki of 100 nM or above))	A (A represents a pIC50 value≥7.5 (IC50≤32 nM))	E (E represents a pKi value of 7 or below (Ki of 100 nM or above))	E (E represents a pKi value of 7 or below (Ki of 100 nM or above))	B (B represents pKi value between 9 and 10 (Ki between 1 nM and 0.1 nM))	A (A represents a value of 3 or above)
C=CC(=O)N1CC(C)(CCn2c(=O)ccc3cnc(Nc4ccc(N5CCN(C(C)=O)CC5)cc4)nc32)C1 [Example 161]	E (E represents a pKi value of 7 or below (Ki of 100 nM or above))	A (A represents a pIC50 value≥7.5 (IC50≤32 nM))	E (E represents a pKi value of 7 or below (Ki of 100 nM or above))	E (E represents a pKi value of 7 or below (Ki of 100 nM or above))	B (B represents pKi value between 9 and 10 (Ki between 1 nM and 0.1 nM))	A (A represents a value of 3 or above)
C=CC(=O)N1CC(CCn2c(=O)ccc3cnc(Nc4ccc(N5CCN(C)C[C@@H]5C)cc4)nc32)C1 [Example 163]	E (E represents a pKi value of 7 or below (Ki of 100 nM or above))	A (A represents a pIC50 value≥7.5 (IC50≤32 nM))	E (E represents a pKi value of 7 or below (Ki of 100 nM or above))	E (E represents a pKi value of 7 or below (Ki of 100 nM or above))	B (B represents pKi value between 9 and 10 (Ki between 1 nM and 0.1 nM))	A (A represents a value of 3 or above)
C=CC(=O)N1CCN(C(C)(C)Cn2c(=O)ccc3cnc(Nc4ccc(N5CCN(C)CC5)cc4)nc32)CC1 [Example 164]	E (E represents a pKi value of 7 or below (Ki of 100 nM or above))	C (C represents a pIC50 value between 6 and 6.7 (IC50 between 1 μM and 200 nM))	E (E represents a pKi value of 7 or below (Ki of 100 nM or above))	E (E represents a pKi value of 7 or below (Ki of 100 nM or above))	B (B represents pKi value between 9 and 10 (Ki between 1 nM and 0.1 nM))	A (A represents a value of 3 or above)
C=CC(=O)N1CC(CCn2c(=O)ccc3cnc(Nc4ccc(N5CCN(C)[C@@H](C)C5)cc4)nc32)C1 [Example 165]	E (E represents a pKi value of 7 or below (Ki of 100 nM or above))	A (A represents a pIC50 value≥7.5 (IC50≤32 nM))	E (E represents a pKi value of 7 or below (Ki of 100 nM or above))	E (E represents a pKi value of 7 or below (Ki of 100 nM or above))	A (A represents a pKi value≥10 (Ki≤0.1 nM))	A (A represents a value of 3 or above)
C=CC(=O)N1CC(CCn2c(=O)ccc3cnc(Nc4ccc(N5CCN(C)CC5)c(C)c4)nc32)C1 [Example 166]	E (E represents a pKi value of 7 or below (Ki of 100 nM or above))	A (A represents a pIC50 value≥7.5 (IC50≤32 nM))	E (E represents a pKi value of 7 or below (Ki of 100 nM or above))	E (E represents a pKi value of 7 or below (Ki of 100 nM or above))	A (A represents a pKi value≥10 (Ki≤0.1 nM))	A (A represents a value of 3 or above)
C=CC(=O)N1CC(CCn2c(=O)ccc3cnc(Nc4ccc(N5CCN(C(C)=O)C[C@@H]5C)cc4)nc32)C1 [Example 168]	E (E represents a pKi value of 7 or below (Ki of 100 nM or above))	A (A represents a pIC50 value≥7.5 (IC50≤32 nM))	E (E represents a pKi value of 7 or below (Ki of 100 nM or above))	E (E represents a pKi value of 7 or below (Ki of 100 nM or above))	A (A represents a pKi value≥10 (Ki≤0.1 nM))	A (A represents a value of 3 or above)
C=CC(=O)N1CC(CCn2c(=O)ccc3cnc(Nc4ccc(N5CCN(C(C)=O)[C@H](C)C5)cc4)nc32)C1 [Example 169]	E (E represents a pKi value of 7 or below (Ki of 100 nM or above))	A (A represents a pIC50 value≥7.5 (IC50≤32 nM))	E (E represents a pKi value of 7 or below (Ki of 100 nM or above))	E (E represents a pKi value of 7 or below (Ki of 100 nM or above))	A (A represents a pKi value≥10 (Ki≤0.1 nM))	A (A represents a value of 3 or above)
C=CC(=O)N1CCN(CCn2c(=O)ccc3cnc(Nc4ccc(N5CCN(S(C)(=O)=O)CC5)cc4)nc32)[C@@H](C)C1 [Example 176]	E (E represents a pKi value of 7 or below (Ki of 100 nM or above))	B (B represents a pC50 value between 6.7 (included) and 7.5 (IC50 between 200 nM and 32 nM))	E (E represents a pKi value of 7 or below (Ki of 100 nM or above))	E (E represents a pKi value of 7 or below (Ki of 100 nM or above))	A (A represents a pKi value≥10 (Ki≤0.1 nM))	A (A represents a value of 3 or above)
C=CC(=O)N1CC(CCn2c(=O)ccc3cnc(Nc4ccc(N5CCN(C(F)(F)F)CC5)cc4)nc32)C1 [Example 177]	E (E represents a pKi value of 7 or below (Ki of 100 nM or above))	B (B represents a pC50 value between 6.7 (included) and 7.5 (IC50 between 200 nM and 32 nM))	E (E represents a pKi value of 7 or below (Ki of 100 nM or above))	E (E represents a pKi value of 7 or below (Ki of 100 nM or above))	B (B represents pKi value between 9 and 10 (Ki between 1 nM and 0.1 nM))	A (A represents a value of 3 or above)
